{"source": "patent US20020090619A1", "about": "“Methods for identifying mitochondrial divalent cation transporters” (priority 2000, published 2002)", "key": {"yeast mitochondria": {"tested_on": "yeast mitochondria", "assay": "Membrane potential ΔΨ of isolated yeast mitochondria (safranin O)", "type": "biochemical, Saccharomyces cerevisiae", "settings": "BSA absent", "experimental": "The yeast strain W303-1A (Saccharomyces cerevisiae) was grown aerobically at 30° C. in a medium containing 2% lactate, 1% yeast extract, 2% peptone, 0.05% dextrose, and 0.01% adenine at pH 5.0, and cells were harvested during the logarithmic phase (A600=1.8−2.2). Mitochondria were isolated from spheroplasts as previously described (Jung et al., 1997 J. Biol. Chem. 272:21104), except that 0.6 M sucrose was used in the homogenization medium instead of 0.6 M mannitol (Daum et al., 1982 J. Biol. Chem. 257:13028). The resulting preparations were maintained on ice and were suspended in 0.6 M mannitol 20 mM HEPES (K+) (pH 6.8), containing 0.75 mg/ml BSA and 0.1 mM EGTA. Protein concentration was determined by a reduced volume Biuret method in which 50 μl of the final preparation were solubilized by adding an equal volume of 10% deoxycholate (Na+), with 0.4 ml of Biuret reagent added to the resulting mixture. BSA was employed as the standard.\nUnless otherwise noted, mitochondria were incubated at 1 mg protein/ml and at approximately 25° C. in a medium that contained 0.6 M mannitol, 10 mM Pi (K+), 10 mM Hepes (TEA+), pH 7.2, plus 1 mM ethanol as an oxidizable substrate. Compounds having a low solubility in water were added from stock solutions prepared in methanol or DMSO. Ca2+ transport and membrane potential were monitored using the indicating dyes antipyrylazo III (ΔA720-790) and safranin O (ΔA511-533), respectively (Akerman et al., 1976 FEBS Lett. 68:191; Scarpa et al., 1978 Biochem. 17:1378). An SLM Aminco DW-2C spectrophotometer operated in the dual wavelength mode was employed for these purposes. The same instrument, operated in split beam mode, was used to monitor mitochondrial swelling as a decrease in apparent absorbance of mitochondrial suspensions at 540 nm. Oxygen consumption data were obtained using a Clark-type electrode in parallel experiments. Atomic absorption spectroscopy was utilized to monitor the transport of other cations by yeast mitochondria. Briefly, samples were taken at appropriate times and the mitochondria were rapidly sedimented in a microcentrifuge. After carefully removing supernatants, the pellets were solubilized with 2 N percholoric acid (overnight) and centrifuged a second time. The resulting supernatants were diluted with an appropriate volume of distilled water and the concentration of the cation in question was subsequently determined."}, "intact yeast": {"tested_on": "intact yeast", "assay": "Aequorin luminescence in intact yeast cells expressing mitochondrially targeted aequorin", "type": "cell-based, Saccharomyces cerevisiae", "experimental": "Yeast cells (strain X4003-5B; leu2, ade1, his4, met2, ura3, trp5, gal1) obtained from the Yeast Genetic Stock Center (Berkeley, Calif.) were transformed with the pYES2 plasmid, encoding the human mitochondrially targeted apoaequorin fragment, using the lithium acetate method (Sambrook et al., 1989), and INVSc1 cells were transformed with the pGK plasmid encoding the yeast mitochondrially targeted apoaequorin fragment. Selection was carried out on plates prepared with synthetic complete medium minus uracil (SC-U) (Sherman, 1991 Meths. Enzymol. 194:3). Transformed colonies were cultured in a small volume of SC-U and assayed for aequorin activity in vitro as described by Nakajima et al. (1991 Proc. Nat. Acad. Sci. USA 88:6878). Briefly, the cells were harvested by centrifugation, resuspended in lysis buffer (50 mM Tris, 2 mM EDTA, 0.5 mM PMSF, pH 8 w/NaOH), disrupted by vortexing with glass beads, and then treated with 0.1% Triton X-100 to release apoaequorin from the mitochondria. Following centrifugation, 200 μl aliquots of the supernatants were incubated with coelenterazine (2.5 μM) and 2-mercaptoethanol (2 μl), for ˜3 hr while standing on ice, to form the luminescent aequorin from its apoprotein. The coelenterazine cofactor is highly hydrophobic and readily permeates yeast cell membranes (Nakajima et al., 1991) such that reconstitution was conducted without disrupting the cells in some cases. 2-mercaptoethanol was omitted when intact cells were employed. A transformant which yielded high luminescence (named X4003-5B-AEQmito1) was selected for further characterization.\nFor preculture, the transformant was inoculated into 50 ml of SC-U plus 2% glucose, and incubated in an air shaker at 180 rpm and 30° C. At 24 hr, the preculture was transferred to 500 ml of a medium containing 1% yeast extract, 2% peptone, 2% lactate, 1% galactose, 0.012% adenine, pH 5 w/NaOH, and growth was continued under conditions which were otherwise the same. […]\nLuminescence measurements were carried out in 6×50 mm culture tubes, using a total volume of 0.3 ml, and were started by injection of 5-20 μl of mitochondria or cells. […] For each value, the ratio of observed luminescence (L) to the potential luminescence remaining (Lmax) was calculated, and compared to a calibration curve which relates this ratio to the free Ca^2+ concentration. […] The total luminescence available initially (Ltotal) must be known and was determined in separate experiments, wherein a saturating Ca^2+ concentration (20 μM) is employed to discharge the aequorin completely. This value allows Lmax to be calculated at any time, as Ltotal minus the sum of luminescence that already occurred. […]"}}}
{"smiles": "O=C(COCC(=O)N(C1CCCCC1)C1CCCCC1)N(C1CCCCC1)C1CCCCC1", "note": "[ETH 129]", "values": [{"measurement": "effect on ΔΨ, ionophore together with Ca2+", "setting": "yeast mitochondria; CaCl2 plus ionophore, FIG. 11C", "value": "sustained reduction"}, {"measurement": "effect on ΔΨ, agent alone", "setting": "yeast mitochondria; FIG. 11B", "value": "little effect"}, {"measurement": "discharge of aequorin in intact cells", "setting": "intact yeast; 6.5 μM ETH 129, FIG. 19A", "value": "discharge of essentially all of the aequorin"}, {"measurement": "rise of mitochondrial Ca2+ concentration in response to ionophore", "setting": "intact yeast; 6.5 μM ETH 129, cells oxidizing ethanol, 14 mM CaCl2, FIG. 20", "value": 6, "unit": "fold"}]}
